Test results as given in ChEMBL document CHEMBL1909046, “DrugMatrix in vitro pharmacology data”.
*1 amine or outer side, *2 acyl side, *3 side chain or, on linkers, in order; H or OH if unused. Where a SMILES comes first, the peptide text is derived from it. Bridges are numbered along the chain shown (N, C = ends). Roman numbers before positions name the chains, in order. [ ]: non-standard residue; d: D form. Actinocin(1to9) = Cc1c2oc3c(C)ccc(C(=O)[*:2])c3nc-2c(C(=O)[*:1])c(N)c1=O; NMeV = CN[C@H](C(=O)O)C(C)C; Sar = CNCC(=O)O

Key:
[1] = target: Sigma non-opioid intracellular receptor 1 (Homo sapiens, UniProt Q99720); experiment: DRUGMATRIX: Sigma1 radioligand binding (ligand: [3H] Haloperidol); assay type: cell membranes, Jurkat, Membrane; conditions: jurkat; Not Active = under 50% inhibition at 10 µM
Chain of Sigma non-opioid intracellular receptor 1 (Q99720 whole entry): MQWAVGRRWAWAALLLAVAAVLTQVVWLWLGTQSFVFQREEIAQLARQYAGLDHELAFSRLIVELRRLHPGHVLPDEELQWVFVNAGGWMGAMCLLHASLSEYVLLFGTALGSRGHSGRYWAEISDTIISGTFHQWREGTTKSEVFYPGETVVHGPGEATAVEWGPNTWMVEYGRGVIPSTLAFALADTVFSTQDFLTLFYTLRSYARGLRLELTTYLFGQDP

[2] = target: T1, C-X-C chemokine receptor type 1 (Homo sapiens, UniProt P25024); also: in other assays of this panel Not Active means under 50% inhibition at 10 µM
T1 sequence (P25024 whole entry): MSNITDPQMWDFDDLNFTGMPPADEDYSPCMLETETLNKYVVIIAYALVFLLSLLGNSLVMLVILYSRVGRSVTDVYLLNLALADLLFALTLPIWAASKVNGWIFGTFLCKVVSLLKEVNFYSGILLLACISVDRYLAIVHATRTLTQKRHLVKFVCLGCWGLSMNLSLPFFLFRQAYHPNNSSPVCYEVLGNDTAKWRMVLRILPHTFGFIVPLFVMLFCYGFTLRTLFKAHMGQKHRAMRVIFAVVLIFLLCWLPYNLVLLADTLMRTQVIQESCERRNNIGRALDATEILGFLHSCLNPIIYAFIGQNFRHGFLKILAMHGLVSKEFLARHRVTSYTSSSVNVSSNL

[3] = target: T2, Muscarinic acetylcholine receptor M2 (Homo sapiens, UniProt P08172); assay type: cell membranes, CHO-K1, Membrane; conditions: cho-k1; also: in other assays of this panel Not Active means under 50% inhibition at 10 µM
T2 sequence (P08172 whole entry): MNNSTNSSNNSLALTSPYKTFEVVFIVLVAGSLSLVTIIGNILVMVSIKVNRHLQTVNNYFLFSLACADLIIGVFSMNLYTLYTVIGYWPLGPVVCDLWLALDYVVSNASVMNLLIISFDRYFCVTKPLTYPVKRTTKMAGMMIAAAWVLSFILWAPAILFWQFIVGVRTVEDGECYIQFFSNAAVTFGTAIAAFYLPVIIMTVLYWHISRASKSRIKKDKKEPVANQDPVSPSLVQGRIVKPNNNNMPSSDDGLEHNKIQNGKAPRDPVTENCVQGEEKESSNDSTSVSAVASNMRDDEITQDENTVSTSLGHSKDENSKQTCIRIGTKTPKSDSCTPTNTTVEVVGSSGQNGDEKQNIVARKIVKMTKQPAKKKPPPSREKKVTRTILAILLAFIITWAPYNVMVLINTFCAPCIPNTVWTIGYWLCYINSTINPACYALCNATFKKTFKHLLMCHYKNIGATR

[4] = target: cGMP-specific 3',5'-cyclic phosphodiesterase (Homo sapiens, UniProt O76074); experiment: DRUGMATRIX: Phosphodiesterase PDE5 enzyme inhibition (substrate: [3H]cGMP + cGMP); assay type: tissue-based; conditions: platelet; Not Active = under 50% inhibition at 10 µM
[5] = target: Epidermal growth factor receptor (Homo sapiens, UniProt P00533); experiment: DRUGMATRIX: Protein Tyrosine Kinase, EGF Receptor enzyme inhibition (substrate: Poly(Glu:Tyr)); assay type: cell-based, Insect cells; conditions: Not Active = under 50% inhibition at 10 µM
Chain of Epidermal growth factor receptor (P00533 whole entry): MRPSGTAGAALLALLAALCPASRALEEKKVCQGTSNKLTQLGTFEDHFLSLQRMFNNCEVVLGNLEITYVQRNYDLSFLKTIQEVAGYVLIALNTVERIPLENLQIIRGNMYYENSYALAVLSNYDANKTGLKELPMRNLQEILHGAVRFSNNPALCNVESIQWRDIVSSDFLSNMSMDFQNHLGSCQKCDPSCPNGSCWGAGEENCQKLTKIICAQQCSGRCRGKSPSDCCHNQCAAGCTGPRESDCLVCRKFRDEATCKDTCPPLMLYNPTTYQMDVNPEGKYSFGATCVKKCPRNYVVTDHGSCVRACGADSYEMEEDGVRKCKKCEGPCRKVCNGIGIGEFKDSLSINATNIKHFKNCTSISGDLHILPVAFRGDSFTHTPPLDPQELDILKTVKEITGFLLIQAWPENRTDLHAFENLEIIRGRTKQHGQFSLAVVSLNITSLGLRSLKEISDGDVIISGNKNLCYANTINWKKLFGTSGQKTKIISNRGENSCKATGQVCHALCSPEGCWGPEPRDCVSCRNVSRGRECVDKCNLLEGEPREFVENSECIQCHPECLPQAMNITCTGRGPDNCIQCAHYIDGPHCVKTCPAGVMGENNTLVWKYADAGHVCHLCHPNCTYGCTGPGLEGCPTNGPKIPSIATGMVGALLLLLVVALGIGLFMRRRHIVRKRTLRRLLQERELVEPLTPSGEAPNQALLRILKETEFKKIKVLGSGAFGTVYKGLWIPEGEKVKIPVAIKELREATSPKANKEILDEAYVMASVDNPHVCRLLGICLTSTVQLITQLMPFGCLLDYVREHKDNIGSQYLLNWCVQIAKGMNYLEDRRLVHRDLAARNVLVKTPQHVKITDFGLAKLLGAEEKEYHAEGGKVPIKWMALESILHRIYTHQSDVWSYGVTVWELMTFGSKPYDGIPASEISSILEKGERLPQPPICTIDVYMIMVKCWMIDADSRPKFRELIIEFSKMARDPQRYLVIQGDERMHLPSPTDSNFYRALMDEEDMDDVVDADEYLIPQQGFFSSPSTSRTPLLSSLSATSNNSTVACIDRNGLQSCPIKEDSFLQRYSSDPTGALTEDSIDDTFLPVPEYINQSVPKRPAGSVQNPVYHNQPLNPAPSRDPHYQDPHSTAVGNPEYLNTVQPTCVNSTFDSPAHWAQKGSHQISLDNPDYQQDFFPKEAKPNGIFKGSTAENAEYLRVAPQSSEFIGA

[6] = target: Adenosine receptor A2a (Homo sapiens, UniProt P29274); experiment: DRUGMATRIX: Adenosine A2A radioligand binding (ligand: […]); assay type: cell membranes, Membrane; conditions: hek293; Not Active = under 50% inhibition at 10 µM
Chain of Adenosine receptor A2a (P29274 whole entry): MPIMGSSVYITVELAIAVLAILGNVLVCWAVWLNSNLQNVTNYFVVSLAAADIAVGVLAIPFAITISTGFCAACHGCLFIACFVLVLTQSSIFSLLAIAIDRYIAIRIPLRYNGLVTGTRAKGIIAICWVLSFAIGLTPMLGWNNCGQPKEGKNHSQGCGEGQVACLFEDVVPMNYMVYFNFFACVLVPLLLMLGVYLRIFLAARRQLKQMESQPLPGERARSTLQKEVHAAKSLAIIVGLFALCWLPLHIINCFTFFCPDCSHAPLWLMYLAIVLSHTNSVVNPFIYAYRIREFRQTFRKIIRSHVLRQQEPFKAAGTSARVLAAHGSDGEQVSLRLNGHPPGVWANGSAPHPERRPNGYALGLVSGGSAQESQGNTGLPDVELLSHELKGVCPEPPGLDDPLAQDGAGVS

[7] = target: Cytochrome P450 2D6 (Homo sapiens, UniProt P10635); conditions: bti-tn-5b1-4; also: in other assays of this panel Not Active means under 50% inhibition at 10 µM
Chain of Cytochrome P450 2D6 (P10635 whole entry): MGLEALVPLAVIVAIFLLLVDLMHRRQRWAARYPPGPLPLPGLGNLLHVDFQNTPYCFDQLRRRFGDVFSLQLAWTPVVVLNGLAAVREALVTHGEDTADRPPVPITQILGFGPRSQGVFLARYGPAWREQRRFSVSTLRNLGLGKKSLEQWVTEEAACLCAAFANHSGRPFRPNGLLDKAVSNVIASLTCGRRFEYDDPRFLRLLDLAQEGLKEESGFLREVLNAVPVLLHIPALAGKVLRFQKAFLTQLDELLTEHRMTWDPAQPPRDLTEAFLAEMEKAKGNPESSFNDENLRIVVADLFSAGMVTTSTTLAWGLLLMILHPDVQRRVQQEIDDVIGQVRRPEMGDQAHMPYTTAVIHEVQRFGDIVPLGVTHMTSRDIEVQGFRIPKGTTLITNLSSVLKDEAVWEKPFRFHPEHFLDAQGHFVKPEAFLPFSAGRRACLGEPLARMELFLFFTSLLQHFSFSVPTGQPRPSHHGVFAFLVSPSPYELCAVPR

| SMILES | IC50 [1] | IC50 [2] | IC50 [3] | IC50 [4] | IC50 ([5]; insect cells) | IC50 [6] | IC50 [7] | Ki [7] | IC50 ([5]; read-out: IC50) [nM] |
| --- | --- | --- | --- | --- | --- | --- | --- | --- | --- |
| Nc1ncn([C@@H]2O[C@H](CO)[C@@H](O)[C@H]2O)c(=O)n1 [AZACITIDINE] | Not Active | Not Active | Not Active | Not Active | Not Active | Not Active | Not Active | Not Active | – |
| c1ccc2c(c1)c1cccc3ccc4cccc2c4c31 [BENZO[E]PYRENE] | Not Active | Not Active | Not Active | Not Active | Not Active | Not Active | Not Active | Not Active | – |
| CNCCc1ccccn1 [BETAHISTINE] | Not Active | Not Active | Not Active | Not Active | Not Active | Not Active | Not Active | Not Active | – |
| CC(C)C(Br)C(=O)NC(N)=O (stereo not given) [BROMISOVALUM] | Not Active | Not Active | Not Active | Not Active | Not Active | Not Active | Not Active | Not Active | – |
| CCCC1O[C@@H]2C[C@H]3[C@@H]4CCC5=CC(=O)C=C[C@]5(C)[C@H]4[C@@H](O)C[C@]3(C)[C@]2(C(=O)CO)O1 (stereo not given in full) [BUDESONIDE] | Not Active | Not Active | Not Active | Not Active | Not Active | Not Active | Not Active | Not Active | – |
| CC(NC(C)(C)C)C(=O)c1cccc(Cl)c1 (stereo not given) [BUPROPION] | Not Active | Not Active | Not Active | Not Active | Not Active | Not Active | Not Active | Not Active | – |
| C[C@H](CS)C(=O)N1CCC[C@H]1C(=O)O [CAPTOPRIL] | Not Active | Not Active | Not Active | Not Active | Not Active | Not Active | Not Active | Not Active | – |
| O=C(O)CCCc1ccc(N(CCCl)CCCl)cc1 [CHLORAMBUCIL] | Not Active | Not Active | Not Active | Not Active | Not Active | Not Active | Not Active | Not Active | – |
| C[C@H](CCC(=O)O)[C@H]1CC[C@H]2[C@@H]3[C@H](O)C[C@@H]4C[C@H](O)CC[C@]4(C)[C@H]3C[C@H](O)[C@]12C [CHOLIC ACID] | Not Active | Not Active | Not Active | Not Active | Not Active | Not Active | Not Active | Not Active | – |
| Cc1cc(C2CCCCC2)n(O)c(=O)c1 [CICLOPIROX] | Not Active | Not Active | Not Active | Not Active | Not Active | Not Active | Not Active | Not Active | – |
| CC1=C2C(=CO[C@H](C)[C@H]2C)C(O)=C(C(=O)O)C1=O [CITRININ] | Not Active | Not Active | Not Active | Not Active | Not Active | Not Active | Not Active | Not Active | – |
| CC(C)(C)NCC(O)c1cc(Cl)c(N)c(Cl)c1 (stereo not given) [CLENBUTEROL] | Not Active | Not Active | Not Active | Not Active | Not Active | Not Active | Not Active | Not Active | – |
| Clc1cccc(Cl)c1NC1=NCCN1 [CLONIDINE] | Not Active | Not Active | Not Active | Not Active | Not Active | Not Active | Not Active | Not Active | – |
| Cc1cc(C(C#N)c2ccc(Cl)cc2)c(Cl)cc1NC(=O)c1cc(I)cc(I)c1O (stereo not given) [CLOSANTEL] | Not Active | Not Active | Not Active | Not Active | – | Not Active | Not Active | Not Active | 564 |
| Cc1onc(-c2ccccc2Cl)c1C(=O)N[C@@H]1C(=O)N2[C@@H]1SC(C)(C)[C@@H]2C(=O)O [CLOXACILLIN] | Not Active | Not Active | Not Active | Not Active | Not Active | Not Active | Not Active | Not Active | – |
| CC1CC(OC(=O)C(O)c2ccccc2)CC(C)(C)C1 (stereo not given) [CYCLANDELATE] | Not Active | Not Active | Not Active | Not Active | Not Active | Not Active | Not Active | Not Active | – |
| Cc1c2oc3c(C)ccc(C(=O)N[C@@H]4C(=O)N[C@H](C(C)C)C(=O)N5CCC[C@H]5C(=O)N(C)CC(=O)N(C)[C@@H](C(C)C)C(=O)O[C@@H]4C)c3nc-2c(C(=O)N[C@@H]2C(=O)N[C@H](C(C)C)C(=O)N3CCC[C@H]3C(=O)N(C)CC(=O)N(C)[C@@H](C(C)C)C(=O)O[C@@H]2C)c(N)c1=O [DACTINOMYCIN] (I: T[dV]P[Sar][NMeV] / II: T[dV]P[Sar][NMeV]; ester I:1-I:C, II:1-II:C; linker I:N-II:N via Actinocin(1to9)) | Not Active | Not Active | Not Active | Not Active | Not Active | Not Active | Not Active | Not Active | – |
| Cc1c(O)c(=O)ccn1C [DEFERIPRONE] | Not Active | Not Active | Not Active | Not Active | Not Active | Not Active | Not Active | Not Active | – |
| CNCCCN1c2ccccc2CCc2ccccc21 [DESIPRAMINE] | Not Active | Not Active | Not Active | Not Active | Not Active | Not Active | Not Active | Not Active | – |
| O=c1oc2ccccc2c(O)c1Cc1c(O)c2ccccc2oc1=O [DICUMAROL] | Not Active | Not Active | Not Active | Not Active | Not Active | Not Active | Not Active | Not Active | – |
| C[C@H]1O[C@@H](O[C@H]2[C@@H](O)C[C@H](O[C@H]3[C@@H](O)C[C@H](O[C@H]4CC[C@@]5(C)[C@H](CC[C@@H]6[C@@H]5C[C@@H](O)[C@]5(C)[C@@H](C7=CC(=O)OC7)CC[C@]65O)C4)O[C@@H]3C)O[C@@H]2C)C[C@H](O)[C@@H]1O [DIGOXIN] | Not Active | Not Active | Not Active | Not Active | Not Active | Not Active | Not Active | Not Active | – |
| CC(C)[C@@]1(NC(=O)[C@@H]2C[C@@H]3c4cccc5[nH]cc(c45)C[C@H]3N(C)C2)O[C@@]2(O)[C@@H]3CCCN3C(=O)[C@H](Cc3ccccc3)N2C1=O.CS(=O)(=O)O [DIHYDROERGOCRISTINE MESYLATE] | Not Active | Not Active | Not Active | Not Active | Not Active | Not Active | Not Active | Not Active | – |
| CC(=O)O[C@@]12CO[C@@H]1C[C@H](O)[C@@]1(C)C(=O)[C@H](O)C3=C(C)[C@@H](OC(=O)[C@H](O)[C@@H](NC(=O)OC(C)(C)C)c4ccccc4)C[C@@](O)([C@@H](OC(=O)c4ccccc4)[C@H]21)C3(C)C.O.O.O [DOCETAXEL] | Not Active | Not Active | Not Active | Not Active | Not Active | Not Active | Not Active | Not Active | – |
| COc1cc2nc(N3CCN(C(=O)C4COc5ccccc5O4)CC3)nc(N)c2cc1OC (stereo not given) [DOXAZOSIN] | Not Active | Not Active | Not Active | Not Active | Not Active | Not Active | Not Active | Not Active | – |
| C[C@H]1c2cccc(O)c2C(=O)C2=C(O)[C@]3(O)C(=O)C(C(N)=O)=C(O)[C@@H](N(C)C)[C@@H]3[C@@H](O)[C@@H]21.O [DOXYCYCLINE] | Not Active | Not Active | Not Active | Not Active | Not Active | Not Active | Not Active | Not Active | – |
